Measured values as given in US20240059710A1, “KRAS G12D Inhibitors” (Jacobio Pharmaceuticals Co., Ltd., priority 2020, published 2024).
pIC50: −log10 of the molar value.

Key:
[1] = tested on: AGS; assay: Cell growth inhibition assay (AGS); type: cell-based; conditions: Homo sapiens, 144 h, 6 days incubation, CellTiter-Glo
Procedure, shortened: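 AGS cells in F12K/10% FBS plated at 500 cells/well, attached overnight, then exposed to compounds for 6 days at 37° C./5% CO2. Viability by CellTiter-Glo luminescence; IC50 from 4-parameter logistic fit.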

[2] = target: T1, GppNp-loaded HIS-KRAS (G12D, aa 1-169) / cRAF RBD (Homo sapiens, UniProt P01116, G12D); assay: GTP-KRAS and cRAF interaction assay; type: binding; conditions: HTRF, 2 hours at 25° C.
T1 construct: GppNp-loaded HIS-KRAS (G12D, aa 1-169)
T1 sequence (P01116 1-169 isoform P01116-2 G12D): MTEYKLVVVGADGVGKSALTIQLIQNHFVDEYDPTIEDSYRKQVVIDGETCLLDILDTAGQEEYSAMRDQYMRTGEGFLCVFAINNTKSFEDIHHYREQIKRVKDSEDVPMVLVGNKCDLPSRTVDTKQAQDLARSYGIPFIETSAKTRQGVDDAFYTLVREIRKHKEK
Procedure, shortened: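 GppNp-loaded KRAS G12D (2.0 nM) preincubated 15 min with compound, then cRAF RBD (35 nM) and HTRF antibodies added for 2 h at 25° C with 100 μM GTP final. Ratios normalized to DMSO and no-KRAS controls; IC50 by 4-parameter fit.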

[3] = tested on: AsPC-1; assay: Cell growth inhibition assay (AsPC-1); type: cell-based; conditions: Homo sapiens, ASPC1, 144 h; AsPC-1, 6 days incubation, CellTiter-Glo
Procedure, shortened: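 AsPC-1 cells seeded at 1000 cells/well in RPMI-1640 with 10% FBS, attached overnight, then exposed to compound dilutions for 6 days at 37 °C/5% CO2. Viability read by CellTiter-Glo luminescence; IC50 from a 4-parameter logistic fit.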

[4] = tested on: AGS cells expressing KRAS G12D; assay: Phospho-ERK1/2(THR202/TYR204) HTRF assay; type: cell-based; conditions: Homo sapiens, 2 hours incubation, read-out: AGS p-ERK IC50
Procedure, shortened: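 Cells seeded 40,000/well, incubated overnight, then treated with compound in F12K with 0.1% FBS for 2 h at 37 °C. Lysates assayed for phospho-ERK1/2 by HTRF after 4 h at 25 °C; IC50 from 4-parameter logistic fit.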

[5] = target: T2, GDP-loaded HIS-KRAS (G12D, aa 1-169) (Homo sapiens, UniProt P01116, G12D); assay: SOS1 catalyzed nucleotide exchange assay; type: biochemical; conditions: SOS1 ExD, TR-FRET, 4 hours at 25° C.
T2 construct: GDP-loaded HIS-KRAS (G12D, aa 1-169)
T2 sequence (P01116 1-169 isoform P01116-2 G12D): as above
Procedure, shortened: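 Compound was preincubated 15 min with 1.5 nM GDP-loaded KRAS G12D (final 5 nM GDP). SOS1 ExD (aa 564-1049, 0.5 µM), 80 nM BODIPY FL GTP and anti-His Tb antibody were then added for 4 h at 25 °C. The TR-FRET 515/486 ratio was normalized between DMSO and no-KRAS wells, and IC50 came from 4-parameter fits.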

| SMILES | pIC50 [1] | pIC50 [2] | pIC50 [3] | pIC50 [4] | pIC50 [5] |
| --- | --- | --- | --- | --- | --- |
| C#Cc1cccc2cc(O)cc(-c3cc4nc(OCC5(CN6CCOCC6)CC5)nc(N5CC6CCC(C5)N6)c4cc3Cl)c12 [Compound 57] | 6.91 | 6.46 | 6.40 | 7.02 | 7.34 |
| C#Cc1cccc2cc(O)cc(-c3ccc4c(N5CC6CCC(C5)N6)nc(OC[C@@]56CCCN5C[C@H](F)C6)nc4c3F)c12 [Compound 73] | 8.15 | 7.43 | 7.38 | 9.12 | 8.52 |
| C#Cc1cccc2cc(O)cc(-c3c(C4CC4)cc4c(N5CC6CCC(C5)N6)nc(OCC5(CN6CCOCC6)CC5)nc4c3F)c12 [Compound 38] | 7.29 | 6.90 | 6.85 | 7.70 | 7.86 |
